Results published in patent US8865894B2, “Oxazolidin-2-one compounds and uses thereof” (Novartis AG, priority 2012, dated 2014).

The molecules below were run against T1, human PI3Kδ (Homo sapiens, UniProt O00329) (assay: Biochemical PI3Kdelta (TR-FRET Adapta Universal Kinase Assay)). Conditions: mean of n measurements, read-out: PIK3d/ IC50.
T1 construct: made in house
T1 sequence (O00329 2-1044 limits assumed): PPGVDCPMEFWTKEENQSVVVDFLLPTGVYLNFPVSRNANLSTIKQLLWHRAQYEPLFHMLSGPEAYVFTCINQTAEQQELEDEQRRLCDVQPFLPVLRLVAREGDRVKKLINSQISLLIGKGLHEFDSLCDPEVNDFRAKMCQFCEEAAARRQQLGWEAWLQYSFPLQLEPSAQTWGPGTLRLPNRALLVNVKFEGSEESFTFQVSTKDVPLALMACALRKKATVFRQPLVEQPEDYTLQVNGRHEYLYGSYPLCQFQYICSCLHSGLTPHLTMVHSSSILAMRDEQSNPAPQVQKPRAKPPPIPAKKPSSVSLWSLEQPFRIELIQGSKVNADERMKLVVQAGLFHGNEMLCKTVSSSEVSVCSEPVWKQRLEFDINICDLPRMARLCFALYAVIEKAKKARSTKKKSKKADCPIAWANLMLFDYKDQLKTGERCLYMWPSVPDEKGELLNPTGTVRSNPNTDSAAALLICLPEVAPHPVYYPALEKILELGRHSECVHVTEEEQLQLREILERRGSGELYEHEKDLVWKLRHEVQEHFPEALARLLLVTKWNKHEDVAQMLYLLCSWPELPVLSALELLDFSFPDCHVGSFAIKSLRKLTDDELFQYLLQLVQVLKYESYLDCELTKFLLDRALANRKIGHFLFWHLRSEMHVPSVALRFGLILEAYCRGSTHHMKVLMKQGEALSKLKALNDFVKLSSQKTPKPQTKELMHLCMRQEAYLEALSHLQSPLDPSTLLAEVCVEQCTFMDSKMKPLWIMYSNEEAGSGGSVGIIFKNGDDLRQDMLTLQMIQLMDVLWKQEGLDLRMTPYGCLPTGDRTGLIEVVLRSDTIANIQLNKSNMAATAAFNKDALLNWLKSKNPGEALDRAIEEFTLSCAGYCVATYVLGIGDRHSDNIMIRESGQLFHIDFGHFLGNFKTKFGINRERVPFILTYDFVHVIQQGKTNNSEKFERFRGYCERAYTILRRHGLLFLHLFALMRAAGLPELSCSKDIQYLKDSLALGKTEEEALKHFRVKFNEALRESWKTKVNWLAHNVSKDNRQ
Description: Test compounds were dissolved in DMSO (10 mM) and transferred into 1.4 mL flat bottom or V-shaped Matrix tubes carrying a unique 2D matrix chip by individual Novartis compound hubs. The numbers of these chips were distinctively linked to Novartis Pharma Numbers. The stock solutions were stored at −20° C. if not used immediately. For the test procedure the vials were defrosted and identified by a scanner whereby a working sheet was generated that guided the subsequent working steps.
Compounds were either manually diluted in DMSO for individual experiments (96 wells enabling 10 cpds at 8 (single points) concentrations) as described in or prepared as described below if tested for profiling in 384-wells. This format enabled the assay of maximally 40 individual test compounds at 8 concentrations (single points) including 4 reference compounds. The dilution protocol included the production of “pre-dilution plates”, “master plates” and “assay plates”.
96 polypropylene well plates were used as pre-dilution plates. A total of 4 pre-dilution plates were prepared including 10 test compounds each on the plate positions A1-A10, one standard compound at A11 and one DMSO control at A12. Programs have been written to run these pipetting steps on the HamiltonSTAR robots.
Identical “assay plates” were then prepared by pipetting 50 nL each of compound dilutions of the “master plates” into 384-well “assay plates”. The compounds were mixed with 4.5 μL of assays components plus 4.5 μL enzyme corresponding to a 1:181 dilution enabling the final concentration of 10, 3.0, 1.0, 0.3, 0.1, 0.03, 0.01 and 0.003 μM, respectively. The preparation of the “master plates” was handled by the Matrix PlateMate Plus robot and replication of “assay plates” by the HummingBird robot.
Catalytically active human PI3Kα, PI3Kβ, PI3Kδ, and mTOR were cloned, expressed and purified as described (Maira S M, Stauffer F, Brueggen J, Furet P, Schnell C, Fritsch C, Brachmann S, Chène P, de Pover A, Schoemaker K, Fabbro D, Gabriel D, Simonen M, Murphy L, Finan P, Sellers W, García-Echeverría C (2008), Mol Cancer Ther. 7:1851-63 and Maira S M, Pecchi S, Brueggen J, Huh K, Schnell C, Fritsch C, Nagel T, Wiesmann M, Brachmann S, Dorsch M, Chène P, Schoemaker K, De Pover A, Menezes D, Fabbro D, Sellers W, García-Echeverría C, Voliva C F (2011), Mol. Cancer Ther. accepted).
The TR-FRET Adapta™ Universal Kinase Assay Kit was purchased from Invitrogen Corporation (Carlsbad/CA, USA) (Cat. No. PV5099). The kit contains the following reagents: Adapta Eu-anti-ADP Antibody (Europium labeled anti-ADP antibody in HEPES buffered saline, Cat. No. PV5097), Alexa Fluor® 647-labeled ADP tracer (Alexa Fluor® 647-labeled ADP tracer in HEPES buffered saline, Cat. No. PV5098), proprietary TR-FRET dilution buffer pH 7.5 (Cat. No. PV3574).
PIK3CD substrate Phosphatidylinositol was obtained from Invitrogen (vesicules consisting of 2 mM PI in 50 mM HEPES pH7.5; Cat. No. PV5371). PIK3CG substrate Phosphatidylinositol-4,5-bisphosphate (PIP(4,5)2 was obtained from Invitrogen (PIP2:PS large unilamellar vesicules consisting of 1 mM PIP2: 19 mM PS in 50 mM HEPES pH7.5, 3 mM MgCl2, 1 mM EGTA; Cat. No. PV5100).
Time-Resolved Fluorescence Resonance Energy Transfer (TR-FRET) is a technology based on energy transfer between two adjacent dyes, from an excited electron in one dye (the donor) to an electron of an adjacent dye (the acceptor) through resonance, then released as a photon. This energy transfer is detected by an increase in the fluorescence emission of the acceptor, and a decrease in the fluorescence emission of the donor. TR-FRET assays for protein kinases use a long-lifetime lanthanide Terbium or Europium chelates as the donor species which overcome interference from compound autofluorescence or light scatter from precipitated compounds, by introducing a delay after excitation by a flashlamp excitation source. Results are often expressed as a ratio of the intensities of the acceptor and donor fluorophores.

| IC50 [nM] | Structure (SMILES) |
| --- | --- |
| 29 | Nc1ncc(-c2cc(N3CCOC3=O)nc(N3CCOCC3)n2)c(C(F)(F)F)n1 [Example 11, 3-(2′-Amino-2-morpholin-4-yl-4′-trifluoromethyl-[4,5′]bipyrimidinyl-6-yl)-oxazolidin-2-one, reference compound] |
| 8 | [2H]C1([2H])OC([2H])([2H])C([2H])([2H])N(c2nc(-c3cnc(N)nc3C(F)(F)F)cc(N3C(=O)OC[C@@H]3C)n2)C1([2H])[2H] [Example 17, (S)-3-(2′-amino-2-D8-morpholino-4′-(trifluoromethyl)-[4,5′-bipyrimidin]-6-yl)-4-methyloxazolidin-2-one] |
| 8 | C[C@H]1OC(=O)N(c2cc(-c3cnc(N)nc3C(F)(F)F)nc(N3CCOCC3)n2)[C@H]1CO [Example 18, (4S,5R)-3-(2′-Amino-2-morpholin-4-yl-4′-trifluoromethyl-[4,5′]bipyrimidinyl-6-yl)-4-hydroxymethyl-5-methyl-oxazolidin-2-one] |
| 9 | C[C@H]1[C@@H](CO)OC(=O)N1c1cc(-c2cnc(N)nc2C(F)(F)F)nc(N2CCOCC2)n1 [Example 19, (4S,5S)-3-(2′-Amino-2-morpholin-4-yl-4′-trifluoromethyl-[4,5′]bipyrimidinyl-6-yl)-5-hydroxymethyl-4-methyl-oxazolidin-2-one] |
| 23 | Nc1ncc(-c2cc(N3C[C@H](CO)OC3=O)nc(N3CCOCC3)n2)c(C(F)(F)F)n1 [Example 20, (R)-3-(2′-Amino-2-morpholin-4-yl-4′-trifluoromethyl-[4,5′]bipyrimidinyl-6-yl)-5-hydroxymethyl-oxazolidin-2-one] |

Second part, the molecule before the results:

| Structure (SMILES) | IC50 [nM] |
| --- | --- |
| C[C@H]1OC(=O)N(c2cc(-c3cnc(N)nc3C(F)(F)F)nc(N3CCOCC3)n2)[C@H]1COC=O [Example 12, Formic acid (4S,5R)-3-(2′-amino-2-morpholin-4-yl-4′-trifluoromethyl-[4,5′]bipyrimidinyl-6-yl)-5-methyl-2-oxo-oxazolidin-4-ylmethyl ester] | 59 |
| C[C@H]1COCCN1c1nc(-c2cnc(N)nc2C(F)(F)F)cc(N2C(=O)OC[C@@H]2C)n1 [Example 13, (S)-3-[2′-Amino-2-((S)-3-methyl-morpholin-4-yl)-4′-trifluoromethyl-[4,5′]bipyrimidinyl-6-yl]-4-methyl-oxazolidin-2-one] | 21 |
| Nc1ncc(-c2cc(N3C[C@@H](CO)OC3=O)nc(N3CCOCC3)n2)c(C(F)(F)F)n1 [Example 14, (S)-3-(2′-Amino-2-morpholin-4-yl-4′-trifluoromethyl-[4,5′]bipyrimidinyl-6-yl)-5-hydroxymethyl-oxazolidin-2-one] | 17 |
| C[C@H]1[C@H](CO)OC(=O)N1c1cc(-c2cnc(N)nc2C(F)(F)F)nc(N2CCOCC2)n1 [Example 15, (4S,5R)-3-(2′-Amino-2-morpholin-4-yl-4′-trifluoromethyl-[4,5′]bipyrimidinyl-6-yl)-5-hydroxymethyl-4-methyl-oxazolidin-2-one] | 15 |
| C[C@H]1CN(c2cc(-c3cnc(N)nc3C(F)(F)F)nc(N3CCOCC3)n2)C(=O)O1 [Example 16, (S)-3-(2′-Amino-2-morpholin-4-yl-4′-trifluoromethyl-[4,5′]bipyrimidinyl-6-yl)-5-methyl-oxazolidin-2-one] | 21 |
| Nc1ncc(-c2cc(N3C(=O)O[C@H]4COC[C@H]43)nc(N3CCOCC3)n2)c(C(F)(F)F)n1 [Example 21, (3aR,6aR)-3-(2′-amino-2-morpholino-4′-(trifluoromethyl)-[4,5′-bipyrimidin]-6-yl)-tetrahydrofuro[3,4-d]oxazol-2(3H)-one] | 17 |
| C[C@H]1[C@@H](CCO)OC(=O)N1c1cc(-c2cnc(N)nc2C(F)(F)F)nc(N2CCOCC2)n1 [Example 23, (4S,5R)-3-(2′-Amino-2-morpholino-4′-(trifluoromethyl)-[4,5′-bipyrimidin]-6-yl)-5-(2-hydroxyethyl)-4-methyloxazolidin-2-one] | 9 |
